Literature values in the PKSmart pharmacokinetics tables (Seal et al. 2025).

Test: Lombardo, Berellini, Obach 2018, Drug Metab Dispos 46:1466, doi 10.1124/dmd.118.082966
Settings: human; for MRT / Vd / clearance / half-life: in vivo, iv; for fraction unbound: plasma

Row | SMILES | MRT [h] | Vd [L/kg] | clearance [mL/min/kg] | half-life [min] | fraction unbound
1 | COc1cccc2c1C(=O)c1c(O)c3c(c(O)c1C2=O)C[C@@](O)(C(=O)CO)C[C@@H]3O[C@@H]1C[C@H](N)[C@H](O[C@@H]2CCCCO2)[C@H](C)O1 | 12.5 | 43.2 | 57.7 | 666 | 
2 | CCCC=c1ncc(=CC(Cc2cccs2)C(=O)O)n1Cc1ccc(C(=O)O)cc1 (stereo not given) | 1.5 | 0.17 | 1.9 | 126 | 
3 | COc1cc2c(cc1O)CCN[C@]21CS[C@@H]2c3c(OC(C)=O)c(C)c4c(c3[C@H](COC1=O)N1[C@@H]2[C@H]2c3c(cc(C)c(OC)c3O)C[C@@H]([C@@H]1O)N2C)OCO4 | 35 | 25 | 12 | 2640 | 0.06
4 | C=C[C@@H]1CNCC[C@@H]1CCCc1ccnc2ccc(OC)cc12 | 15.6 | 24.4 | 26 | 726 | 
5 | C[C@H]1O[C@H](O[C@H]2[C@H](O)[C@@H](O)[C@@H](OC(C(=O)C(O)CO)[C@H](O)CO)O[C@@H]2CO)[C@H](O)[C@@H](O)[C@@H]1N[C@H]1C=C(CO)[C@@H](O)[C@H](O)[C@H]1O (stereo not given in full) | 2.4 | 0.32 | 2.2 | 162 | 
6 | CC(=O)O[C@H]1C[C@@H]2CC[C@@H]3[C@H](CC[C@@]4(C)[C@H]3C[C@H](N3CC[N+](C)(C)CC3)[C@@H]4OC(C)=O)[C@@]2(C)C[C@@H]1N1CC[N+](C)(C)CC1 | 1.9 | 0.35 | 3 | 114 | 0.98
7 | Nc1ccc(O)c(C(=O)O)c1 | 0.59 | 0.33 | 9.3 | 36.6 | 0.39
8 | O=C(/C=C/c1ccc(O)cc1)C1=C(O)[C@](O)([C@@H]2O[C@H](CO)[C@@H](O)[C@H](O)[C@H]2O)C(O)=C([C@@H]2O[C@H](CO)[C@@H](O)[C@H](O)[C@H]2O)C1=O | 3.6 | 0.2 | 1 | 174 | 0.22
9 | CCC(=O)O[C@](Cc1ccccc1)(c1ccccc1)[C@H](C)CN(C)C | 13 | 12 | 15 | 1080 | 0.24
10 | CCCCC[C@@H](O)CC[C@H]1[C@@H]2Cc3cccc(OCC(=O)O)c3C[C@@H]2C[C@@H]1O | 0.36 | 0.23 | 10.7 | 49.2 | 0.09
11 | CCc1[nH]c(=O)[nH]c1C(=O)c1ccncc1 | 1.2 | 0.65 | 9.03 | 79.2 | 
12 | CC(C)NC[C@@H](O)COc1cccc2c1N(C(=O)c1cccnc1)CCC2 | 3.1 | 0.67 | 3.6 | 744 | 
13 | N=C(N)c1ccc(CNC(=O)C2CCN2C(=O)C(NCC(=O)O)C2CCCCC2)cc1 (stereo not given) | 2 | 0.23 | 1.9 | 96 | 
14 | OC(c1ccccc1)(c1ccccc1)C12CC[N+](CCOCc3ccccc3)(CC1)CC2 | 0.57 | 1.23 | 36 | 1140 | 0.11
15 | Nc1nc(Cl)nc2c1ncn2[C@@H]1O[C@H](CO)[C@@H](O)[C@@H]1F | 3.8 | 1.75 | 7.7 | 240 | 
16 | CCN(CC)CC#CCOC(=O)C(O)(c1ccccc1)C1CCCCC1 (stereo not given) | 2.7 | 0.85 | 5.1 | 432 | 0.0034
17 | CN[C@@H]1[C@H](O)[C@H](NC)[C@H]2O[C@@]3(O)C(=O)C[C@@H](C)O[C@H]3O[C@@H]2[C@H]1O | 2.2 | 0.13 | 0.99 | 108 | 
18 | COc1ccc([C@@H]2Sc3cc(Cl)ccc3N(CCN(C)C)C(=O)C2OC(C)=O)cc1 (stereo not given in full) | 12.3 | 9.7 | 13.7 | 636 | 0.1
19 | NC[C@H]1O[C@H](O[C@H]2[C@H](O)[C@@H](O[C@H]3O[C@H](CO)[C@@H](O)[C@H](N)[C@H]3O)[C@H](N)C[C@@H]2N)[C@H](O)[C@@H](O)[C@@H]1O | 3.1 | 0.26 | 1.4 | 126 | 
20 | CC[C@H]1OC(=O)C(C)[C@@H](O[C@H]2C[C@@](C)(OC)[C@@H](O)[C@H](C)O2)[C@H](C)[C@@H](O[C@@H]2O[C@H](C)C[C@H](N(C)C)[C@H]2O)[C@](C)(OC)CC(C)C(=O)C(C)[C@@H](O)[C@]1(C)O (stereo not given in full) | 3.4 | 1.5 | 7.3 | 168 | 
21 | CN(c1nc2ccccc2s1)C1CCN(C[C@@H](O)COc2ccc(F)cc2)CC1 | 22.6 | 5.5 | 4.05 | 1130 | 0.014
22 | O=C(O)Cn1c(=O)c(=O)[nH]c2cc([N+](=O)[O-])c(-n3ccnc3)cc21 | 0.6 | 0.19 | 5.3 | 46.8 | 

Row | SMILES | MRT [h] | Vd [L/kg] | clearance [mL/min/kg] | half-life [min] | fraction unbound
23 | O=C(c1ccc(F)c(F)c1Nc1ccc(I)cc1F)N1CC(O)([C@@H]2CCCCN2)C1 | 96.6 | 15.4 | 2.8 | 4130 | 0.05
24 | C=C(CC(NC(=O)c1ccc(CCc2cnc3nc(N)nc(N)c3n2)cc1)C(=O)O)C(=O)O (stereo not given) | 3.78 | 0.7 | 3.08 | 492 | 
25 | COc1ccccc1OC[C@H](O)CN1CCN(CC(=O)Nc2c(C)cccc2C)CC1 | 2.1 | 1.2 | 9.5 | 108 | 0.38
26 | Cn1c(NCCN(CCO)CCCc2ccc([N+](=O)[O-])cc2)cc(=O)n(C)c1=O | 1.56 | 1.96 | 20.9 | 91.2 | 0.09
27 | OCCN(CCc1c[nH]c2ccccc12)Cc1ccc(/C=C/C(O)=NO)cc1 | 4.78 | 2.17 | 7.6 | 746 | 0.23
28 | Nc1nc(=O)c2nc(CNc3ccc(C(=O)NC(CCC(=O)O)C(=O)O)cc3)cnc2[nH]1 (stereo not given) | 3.1 | 9.7 | 52 | 156 | 0.5
29 | CCCn1c(=O)c2[nH]c(C34CC5CC(CC3C5)C4)nc2n(CCC)c1=O | 14.1 | 4.3 | 5 | 1090 | 
30 | Cc1ccc(-n2ccnc2)cc1C(O)c1c(C)cc(C(=O)O)cc1C (stereo not given) | 2.17 | 0.37 | 2.91 | 142 | 
31 | CC(=O)[C@]1(O)Cc2c(O)c3c(c(O)c2[C@@H](O[C@H]2C[C@H](N4CC4)[C@H](OS(C)(=O)=O)[C@H](C)O2)C1)C(=O)c1ccccc1C3=O | 2.09 | 2.95 | 23.5 | 440 | 0.006
32 | Clc1cccc(N2CCNCC2)c1 | 7 | 2.5 | 6.1 | 282 | 
33 | CCCNC(=O)NS(=O)(=O)c1ccc(Cl)cc1 | 70 | 0.19 | 0.045 | 2760 | 
34 | Cc1onc(-c2ccccc2)c1-c1ccc(S(N)(=O)=O)cc1 | 9.4 | 0.75 | 1.4 | 444 | 0.02
35 | CCNCC(O)c1cccc(O)c1 (stereo not given) | 2.5 | 2.1 | 14 | 132 | 
36 | CC(=O)O[C@H]1C[C@@]2(C)[C@@H](C[C@@H](O)[C@H]3[C@]4(C)CC[C@@H](O)[C@@H](C)[C@@H]4CC[C@]32C)/C1=C(/CCC=C(C)C)C(=O)O | 10.6 | 0.23 | 0.35 | 588 | 0.02
37 | OC(CCN1CCCC1)(c1ccccc1)C1CCCCC1 (stereo not given) | 14 | 0.74 | 0.86 | 720 | 
38 | O=C(O)C(CCc1ccccc1)NC1CCCN2CCCC(C(=O)O)N2C1=O (stereo not given) | 29.5 | 3.7 | 2.1 | 3040 | 
39 | CCn1cc(C(=O)O)c(=O)c2cnc(N3CCNCC3)nc21 | 5.15 | 0.88 | 2.84 | 221 | 0.7
40 | CC(C)(C)C1(O)CC2OC(=O)CC23C(=O)OC2OC(=O)C(O)C231 (stereo not given) | 4 | 2.5 | 10 | 192 | 
41 | CC(C(=O)O)c1ccc(C(=O)c2cccs2)cc1 (stereo not given) | 0.88 | 0.04 | 0.76 | 126 | 
42 | COc1cccc2c(C(=O)N3CCN(C)C(C)C3)cn(CC3CCCCC3)c12 (stereo not given) | 5.7 | 1 | 3 | 252 | 
43 | CC1(C)C(\C=C/C=C/C=C/C=C2\N(CCCCS(=O)(=O)O)c3ccc4ccccc4c3C2(C)C)=[N+](CCCCS(=O)(=O)[O-])c2ccc3ccccc3c21 | 0.086 | 0.035 | 6.8 | 3.9 | 0.05
44 | C[C@H]1[C@H](C)CC[C@]2(C(=O)O)CC[C@@]3(C)C(=CC[C@@H]4[C@@]5(C)CC[C@H](O)C(C)(C)[C@@H]5CC[C@]43C)[C@H]12 | 2.34 |  | 3.87 | 288 | 

Row | SMILES | MRT [h] | Vd [L/kg] | clearance [mL/min/kg] | half-life [min] | fraction unbound
45 | CO/N=C1\CN(c2nc3c(cc2F)c(=O)c(C(=O)O)cn3C2CC2)CC1CN (stereo not given) | 8.1 | 3.52 | 7.2 | 498 | 0.3
46 | CN(C)CC/C=C1/c2ccccc2Sc2ccc(Cl)cc21 | 20.7 | 13.7 | 11.5 | 1550 | 
47 | CCCCC(=O)N(Cc1ccc(-c2ccccc2-c2nnn[nH]2)cc1)C(C(=O)O)C(C)C (stereo not given) | 7.5 | 0.22 | 0.49 | 570 | 0.04
48 | N=C(N)NCCCC(NC(=O)C1CCCN1C(=O)C1CSSCCC(=O)NC(Cc2ccc(O)cc2)C(=O)NC(Cc2ccccc2)C(=O)NC(CCC(N)=O)C(=O)NC(CC(N)=O)C(=O)N1)C(=O)NCC(N)=O (stereo not given) | 3.6 | 0.3 | 1.4 | 180 | 
49 | CC(=O)Nc1cccc(-n2c(=O)n(C3CC3)c(=O)c3c(Nc4ccc(I)cc4F)n(C)c(=O)c(C)c32)c1 | 304 | 13.9 | 0.8 | 13700 | 
50 | CCN(C)C(=O)Oc1cccc([C@H](C)N(C)C)c1 | 1.9 | 1.3 | 12 | 84 | 0.6
51 | CC1C(=O)O[C@H]2C[C@@]34[C@H]5C[C@@H](C(C)(C)C)C36C(O)C(=O)O[C@H]6OC4(C(=O)O5)[C@@]12O (stereo not given in full) | 4.6 | 0.62 | 2.3 | 228 | 
52 | CC(=O)OCC1=C(C(=O)O)N2C(=O)C(NC(=O)CSc3ccncc3)[C@H]2SC1 (stereo not given in full) | 0.8 | 0.13 | 2.7 | 72 | 0.55
53 | COc1ccc(Cl)cc1C(=O)NCCc1ccc(S(=O)(=O)NC(=O)NC2CCCCC2)cc1 | 1.6 | 0.08 |  | 132 | 0.021
54 | OCCN(CCO)c1nc(N2CCCCC2)c2nc(N(CCO)CCO)nc(N3CCCCC3)c2n1 | 6.8 |  | 2 | 780 | 
55 | COc1cc(N)cn[n+]1-c1ccccc1 | 13 | 4 | 5.1 | 846 | 
56 | CN1CCc2nc(C(=O)N[C@@H]3CC(C(=O)N(C)C)CC[C@@H]3NC(=O)C(=O)Nc3ccc(Cl)cn3)sc2C1 (stereo not given in full) |  |  |  |  | 0.5
57 | CN[C@@H]1[C@H](O[C@H]2[C@H](O[C@H]3[C@H](O)[C@@H](O)[C@H](NC(=N)N)[C@@H](O)[C@@H]3NC(=N)N)O[C@@H](C)[C@]2(O)C=O)O[C@@H](CO)[C@H](O)[C@H]1O | 7.3 | 0.34 | 0.78 | 258 | 0.65
58 | C[C@H](CCc1ccccc1)NC[C@H](O)c1ccc(O)c(C(N)=O)c1 | 2.8 |  | 29 | 198 | 
59 | CON=C(C(=O)NC1C(=O)N2C(C(=O)O)=C(CN3C=CN4NC=CC=C34)CS[C@H]12)c1nsc(N)n1 (stereo not given in full) | 2 | 0.24 | 2.1 | 102 | 0.74
60 | CN1CCOC(c2ccccc2)c2ccccc2C1 (stereo not given) | 8.1 | 5.6 | 12 | 300 | 
61 | COc1cc([S+](C)O)ccc1-c1nc2cnccc2[n-]1 (stereo not given) | 1.3 | 1.67 | 20.7 | 72 | 0.48
62 | COc1ccccc1Oc1c(NS(=O)(=O)c2ccc(C)cn2)nc(-c2ccnc(-c3nnn[nH]3)c2)nc1OCCO | 0.4 | 0.23 | 10.5 | 156 | 0.02
63 | Cc1cccc(C)c1OCC(C)N (stereo not given) | 12 | 5.9 | 8.3 | 594 | 0.36
64 | CN[C@@H]1[C@@H](O)[C@@H](O[C@@H]2[C@@H](O)[C@H](O[C@H]3OC(CNCCO)=CC[C@H]3N)[C@@H](N)C[C@H]2NC(=O)C(O)CCN)OC[C@]1(C)O (stereo not given in full) | 3.2 | 0.22 | 1.14 | 204 | 0.84
65 | C=C[C@]1(C)C[C@@H](OC(=O)CS[C@@H]2CC[C@@H](N)C[C@H]2O)[C@]2(C)[C@H](C)CC[C@]3(CCC(=O)[C@H]32)[C@@H](C)[C@@H]1O | 5.53 | 1.32 | 3.96 | 384 | 0.17
